Reference: patent US20080311168A1, “PROCESS FOR COMBATING ACARIDS” (RHODIA CHIMIE, priority 2002, published 2008)

Legend:
[1] = tested on: dust mites (dermatophagoides pteronyssinus); assay: Regulation of a dust mite population by powders (derived from AFNOR NF G 39-011), Example 12; format: in vivo; conditions: for Number of living acarids after 6 weeks, Mean: 5 g test powder + 5 g nutrient medium (food 1/NF G 39-011), 50 acarids placed, 4 repetitions; for CP (coefficient of regulation of the population of acarids), Mean: 6 weeks, versus sample without additive, 5 g test powder + 5 g nutrient medium, 0 = ineffective, 100 = eradication
Description: This characterization is carried out by a laboratory registered by the French Ministry of Agriculture, Fisheries and Food. The object is to evaluate the effectiveness of PA powders, to which ZnS may or may not have been added, on the regulation of the change in a population of dust mites (dermatophagoides pteronyssinus). Monitoring is carried out over two development cycles of the acarids, i.e. 6 weeks.
The acarids used originate from a laboratory strain raised on a substrate composed of a 50/50 (w/w) mixture of wheatgerm and of brewers yeast as specks graded by sieving (fragments of less than 1 mm). The temperature is between 23 and 25° C. and the relative humidity is maintained at 75% by the presence of a saturated ammonium sulphate solution. The screen is kept in darkness.
The screen is supplied by the Laboratoire des Insectes et Acariens des Denrees [Laboratory of the Insects and Acarids of Foodstuff] of the Institut National de Recherches Agronomiques (INRA) [National Institute of Agronomic Research] at Bordeaux, according to the AFNOR standard NF G 39-011.
The method is derived directly from the AFNOR standard NF G 39-011, with the following variations: • the experimental unit is composed of a chamber with a diameter of 8 cm which is escapeproof with regard to acarids but which allows ventilation and in which are found: • 5 g of nutrient medium (food 1/NF G 39-011 appendix) • 5 g of test powder, carpeting the bottom of the chamber • the study is carried out by placing 50 acarids in these devices • 4 repetitions are carried out on the same day per experimental factor, including for the control batches composed of the same device but without the addition of the powder. The result is expressed in the form of a mean and standard deviation with regard to these 4 samples.
The monitoring consists in counting the number of living acarids after the time period of 6 weeks. As direct counting is rendered impossible by the structure of the substrate, extraction by heat according to the recommendations of the AFNOR standard NF G 39-011 is used.
The criterion of effectiveness of an additive is then defined as the coefficient of regulation of the population of acarids (CP), i.e.:
The population counts are all carried out at 6 weeks.

dust mites [2] = assay: Curative test: ZnS powder deposited on fitted carpet holding an existing acarid population, Example 14; format: in vivo, dermatophagoides pteronyssinus
Description: (§1) The object of this study is to evaluate the effectiveness of a powder intended to be applied to floor coverings in a curative and/or preventive treatment for combating populations of dust mites.
(§2) This characterization is carried out in the same laboratory which carried out the test of Example 12. The source of the acarids is identical.
(§3) The test comprises two parts: • a curative test by deposition of the product on an existing population of acarids, • a preventive test with deposition of acarids on surfaces of fitted carpets treated beforehand with the product.
(§4) Monitoring is carried out over a period of at least two cycles, i.e. 6 weeks, and in comparison with a population not subjected to the product.
(§5) The experimental method is derived from the experimental context of the AFNOR standard NF G 39-011.
(§6) The experimental unit is composed of a chamber with a diameter of 8 cm which is escapeproof with regard to the acarids but which allows ventilation and in which are found: • a piece of short-pile polyamide fitted carpet as floor • 5 g of nutrient medium (dust+skin scales) • the corresponding dose of the test powder.
• approximately 50 active acarids are placed on the fitted carpets • the test product is mixed with the food and sprinkled with a salt cellar over the fitted carpet containing the acarids • 4 repetitions are carried out on the same day as experimental factor, including for the control batches composed of the same device but without the product • the product is applied at a rate of 160 mg/m^2 • 2 counts of the populations of acarids are carried out after incubating for 4 and 6 weeks under optimum development conditions.
(§7) • the product is mixed with the food and sprinkled with a salt cellar over pieces of acarid-free fitted carpets • one month later, approximately 50 active acarids are placed on the treated fitted carpets • 4 repetitions are carried out as experimental factor, including for the control batches composed of the same device but without the product (same control as for the curative test) • the product is applied at the rate of 10, 40, 80 and 160 mg/m^2 • counting of the population of acarids is carried out after incubating for 6 weeks under optimum development conditions. The monitorings consist in counting the number of living acarids after the time period of 4 or 6 weeks of incubation. The method of counting the acarids and the calculation of the coefficient of regulation of the population of acarids (CP) are identical to Example 12.
(§8) The population counts on controlled and treated are all carried out at the same number of weeks.

dust mites [3] = assay: Preventive test: acarids deposited on fitted carpet treated beforehand with ZnS powder, Example 14; format: in vivo, dermatophagoides pteronyssinus
Description: as §1, §2, §3, §4, §5, §6, §7, §8

[S-2].[Zn+2] [ZnS 1, ZnS]
Number of living acarids after 6 weeks, Mean [1]: 318 | CP (coefficient of regulation of the population of acarids), Mean [1]: 63 | Number of living acarids after 4 weeks, Mean (dust mites [2]; 160 mg/m^2, 4 weeks incubation): 148 | CP 4 weeks, Mean (dust mites [2]; 160 mg/m^2, 4 weeks, versus untreated carpet): 42 | Number of living acarids after 6 weeks, Mean (dust mites [2]; 160 mg/m^2, 6 weeks incubation): 284 | CP 6 weeks, Mean (dust mites [2]; 160 mg/m^2, 6 weeks, versus untreated carpet): 69 | CP 4 weeks, Mean (dust mites [3]; 10 mg/m^2, 4 weeks): 6 | CP 6 weeks, Mean (dust mites [3]; 10 mg/m^2, 6 weeks): 6 | Number of living acarids after 6 weeks, Mean (dust mites [3]; 10 mg/m^2, 6 weeks): 849 | Number of living acarids after 4 weeks, Mean (dust mites [3]; 10 mg/m^2, acarids placed one month after treatment, 4 weeks): 242 | CP 4 weeks, Mean (dust mites [3]; 40 mg/m^2, 4 weeks): 40 | Number of living acarids after 4 weeks, Mean (dust mites [3]; 40 mg/m^2, 4 weeks): 154 | CP 6 weeks, Mean (dust mites [3]; 40 mg/m^2, 6 weeks): 60 | Number of living acarids after 6 weeks, Mean (dust mites [3]; 40 mg/m^2, 6 weeks): 361 | CP 4 weeks, Mean (dust mites [3]; 80 mg/m^2, 4 weeks): 45 | Number of living acarids after 4 weeks, Mean (dust mites [3]; 80 mg/m^2, 4 weeks): 142 | CP 6 weeks, Mean (dust mites [3]; 80 mg/m^2, 6 weeks): 65 | Number of living acarids after 6 weeks, Mean (dust mites [3]; 80 mg/m^2, 6 weeks): 315 | CP 4 weeks, Mean (dust mites [3]; 160 mg/m^2, 4 weeks): 52 | Number of living acarids after 4 weeks, Mean (dust mites [3]; 160 mg/m^2, 4 weeks): 123 | CP 6 weeks, Mean (dust mites [3]; 160 mg/m^2, 6 weeks): 68 | Number of living acarids after 6 weeks, Mean (dust mites [3]; 160 mg/m^2, 6 weeks): 290

[S-2].[Zn+2] [ZnS 2, ZnS]
Number of living acarids after 6 weeks, Mean [1]: 305 | CP (coefficient of regulation of the population of acarids), Mean [1]: 65
